Values quoted from earlier work as cited in patent publication US20100178364A1, “Dietary supplements against latent foreign DNA” (priority 2009, published 2010).
Where two headings read alike, the source gives them in different places.

Experiments:
[1] = test system: EBV immediate-early protein Rta
[2] = test system: LANA-1, v-cyclin, and v-FLIP proteins; conditions: KSHV positive cells (BCBL-1, BC-3, BC-1) treated 2, 3, 6 days; effect reversible
[3] = test system: LT1/LT2 promoter; conditions: BJAB cells, GA-treated vs untreated
[4] = tested levels (3 and 4 mM)
[5] = test system: KSHV-positive B cells
[6] = test system: CMV

O=C(O[C@@H]1Cc2c(O)cc(O)cc2O[C@@H]1c1cc(O)c(O)c(O)c1)c1cc(O)c(O)c(O)c1 [EGCG, Epigallocatechin gallate]
percentage of cells expressing Rta ([1]; TSA-treated P3HR1 cells, 100 mM EGCG): 0.5%
percentage of cells expressing Rta ([1]; TSA-treated P3HR1 cells, EGCG): 9.8%

CC1(C)[C@@H](O[C@H]2O[C@H](C(=O)O)[C@@H](O)[C@H](O)[C@H]2O[C@@H]2O[C@H](C(=O)O)[C@@H](O)[C@H](O)[C@H]2O)CC[C@]2(C)[C@H]3C(=O)C=C4[C@@H]5C[C@@](C)(C(=O)O)CC[C@]5(C)CC[C@@]4(C)[C@]3(C)CC[C@@H]12 [GA, glycyrrhizic acid]
LANA-1 protein expression [2]: decreased
LT1/LT2 promoter activity (luciferase expression) [3]: does not affect the LT1/LT2 promoter activity
toxicity [4]: not being toxic at the tested levels
disruption of mitochondrial membranes / DNA condensation ([5]; uninfected B cells): no disruptions of their mitochondrial membranes or DNA condensation

CCCCCCCCCCCCCC(=O)O[C@@H]1[C@@H](C)[C@@]2(O)[C@@H](C=C(CO)C[C@]3(O)C(=O)C(C)=C[C@@H]23)[C@@H]2C(C)(C)[C@]12OC(C)=O [TPA, 12-O-tetradecanoyl-phorbol-13-acetate, reference compound]
disruption of mitochondrial membranes / DNA condensation ([5]; TPA treatment (latent to lytic switch)): did not disrupt the mitochondrial membranes or caused DNA condensation

CC(/C=C/C(=O)NO)=C\[C@@H](C)C(=O)c1ccc(N(C)C)cc1 [TSA, reference compound]
percentage of cells expressing Rta ([1]; P3HR1 cells after TSA alone (lytic cycle activator)): 23.4%

C[C@H]1[C@H](OC(=O)CCC(=O)O)O[C@@H]2O[C@@]3(C)CC[C@H]4[C@H](C)CC[C@@H]1[C@@]24OO3 [artesunate]
viral decay T ½ ([6]; CMV load kinetics during artesunate treatment, oral 100 mg/day): 22 to 45.6 h
hematopoiesis ([6]; within 10 days): improved

Nc1nc(O)c2ncn(COC(CO)CO)c2n1 [ganciclovir]
decrease of viral DNA load ([6]; by day 7 of treatment, one patient): 1 log
